From ChEMBL document CHEMBL1141954, “Indole-2-carboxamidines as novel NR2B selective NMDA receptor antagonists” (Bioorg Med Chem Lett, 2005)
pIC50: −log10 of the molar value.

Each compound was assayed against Glutamate NMDA receptor (assay: Inhibition of NMDA-evoked intracellular calcium increase in rat cortical cell at 1 uM).
Type: functional, cell-based

inhibition | SMILES
57% | COc1cccc(C/N=C(\N)c2cc3ccccc3[nH]2)c1.Cl
32.8% | Cl.N=C(NCc1ccccc1)c1cc2ccccc2[nH]1
10.5% | COc1ccc(C/N=C(\N)c2cc3ccccc3[nH]2)cc1.Cl

Species on record: Mus musculus
Assay: Oral efficacy in mice formalin test
Type: functional

SMILES | ED50
COc1ccccc1C/N=C(\N)c1cc2ccccc2[nH]1.Cl | 15 mg/kg

Each compound was assayed against Glutamate NMDA receptor (assay: Inhibition of NMDA-evoked intracellular calcium increase in rat cortical cells).
Type: functional, cell-based

SMILES | pIC50
N=C(NCc1ccccc1F)c1cc2ccccc2[nH]1 | 6.63
Cc1ccccc1C/N=C(\N)c1cc2ccccc2[nH]1 | 6.77
N=C(NCc1c(F)cccc1F)c1cc2ccccc2[nH]1 | 6.84
N=C(NCc1cc(Cl)cc(Cl)c1)c1cc2ccccc2[nH]1 | 6.80

The remaining lines, values ahead:

pIC50 | SMILES
7.16 | COc1cccc(OC)c1C/N=C(\N)c1cc2cc(Cl)ccc2[nH]1
8.27 | COc1cccc(OC)c1C/N=C(\N)c1cc2ccccc2[nH]1
7.77 | COc1cccc(OC)c1C/N=C(\N)c1cc2cc(F)ccc2[nH]1
7.19 | COc1ccccc1C/N=C(\N)c1cc2cc(Cl)ccc2[nH]1
7.59 | COc1ccc2[nH]c(C(=N)NCc3c(OC)cccc3OC)cc2c1
8.18 | COc1ccccc1CNC(=N)/C=C/c1ccccc1
7.46 | COc1ccccc1C/N=C(\N)c1cc2ccccc2[nH]1.Cl
7.48 | COc1ccccc1C/N=C(\N)c1cc2cc(F)ccc2[nH]1
7.72 | COc1ccc2[nH]c(C(=N)NCc3ccccc3OC)cc2c1

Each compound was assayed against Glutamate NMDA receptor; GRIN1/GRIN2A (Homo sapiens) (UniProt Q05586+Q12879) (assay: Inhibitory activity against NR1A expressed in combination with NR2A at 15 uM).

inhibition | SMILES
32.1% | COc1cccc(OC)c1C/N=C(\N)c1cc2ccccc2[nH]1
